Data reported in ChEMBL document CHEMBL1201862, “PubChem BioAssay data set” (2004).
Values joined by “and” are separate entries in the source; they are usually repeats but may differ in a detail not shown here. Equal entries are not always repeated. “Also recorded” adds a separate entry of the source. Active and inactive are the calls of the source.

Columns and labels:
[1] = insulin promoter down-regulators in MIN6 cells, imaging, high-content screening, mouse beta cells (AID 1628); format: functional
[2] = cytotoxicity in MIN6 insulinoma cells, dose response, cytotoxicity control, cell-based, mouse insulinoma (AID 2122); format: functional;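 also: confirmatory high-throughput counterscreen run to flag cytotoxic compounds; mouse MIN-6 beta cells carrying an insulin promoter eGFP reporter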
[3] = NIH-3T3 fibroblast cytotoxicity, dose response, cytotoxicity control, cell-based, fluorescence, Alamar Blue, secondary assay (AID 2327); format: functional;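 also: NIH-3T3 mouse fibroblasts cultured with fluconazole at 8 µg/mL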
[4] = C. albicans growth with fluconazole, confirmation, fluorescence, retest (AID 2467); format: functional, cell-based
[5] = test system: INS1; assay: beta cell apoptosis inhibitors, cytokine rescue, dose response, luminescence, retest (AID 449756); format: functional, cell-based; details: Rattus norvegicus, INS1;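 also: cell death triggered by IL-1 beta plus TNF-alpha plus IFN-gamma mixture; protective hits raise ATP signal compared with cytokine alone wells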
[6] = target: Cytochrome P450 2C19 (Homo sapiens, UniProt P33261); assay: Cytochrome panel assay with activity outcomes. Panel member name: p450-cyp2c19 Compounds with AC50 equal or less than 10 uM are considered active; format: functional
Cytochrome P450 2C19, sequence (P33261 whole entry): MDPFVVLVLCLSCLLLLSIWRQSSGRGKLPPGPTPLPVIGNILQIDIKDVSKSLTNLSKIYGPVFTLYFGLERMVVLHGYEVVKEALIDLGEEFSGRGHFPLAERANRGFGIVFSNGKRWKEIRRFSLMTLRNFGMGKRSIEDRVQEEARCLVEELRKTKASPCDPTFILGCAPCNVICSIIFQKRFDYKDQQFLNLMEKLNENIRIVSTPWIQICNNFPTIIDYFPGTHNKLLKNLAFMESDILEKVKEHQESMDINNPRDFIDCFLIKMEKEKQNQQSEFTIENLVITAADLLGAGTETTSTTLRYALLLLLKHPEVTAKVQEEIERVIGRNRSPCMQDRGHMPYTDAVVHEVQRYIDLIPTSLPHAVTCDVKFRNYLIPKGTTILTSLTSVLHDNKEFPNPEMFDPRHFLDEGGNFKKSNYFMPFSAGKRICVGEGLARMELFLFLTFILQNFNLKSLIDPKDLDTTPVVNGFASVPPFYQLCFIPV

[7] = target: T1, Cytochrome P450 1A2 (Homo sapiens, UniProt P05177);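 also: PubChem cytochrome P450 panel assay, CYP1A2 panel member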
T1 sequence (P05177 whole entry): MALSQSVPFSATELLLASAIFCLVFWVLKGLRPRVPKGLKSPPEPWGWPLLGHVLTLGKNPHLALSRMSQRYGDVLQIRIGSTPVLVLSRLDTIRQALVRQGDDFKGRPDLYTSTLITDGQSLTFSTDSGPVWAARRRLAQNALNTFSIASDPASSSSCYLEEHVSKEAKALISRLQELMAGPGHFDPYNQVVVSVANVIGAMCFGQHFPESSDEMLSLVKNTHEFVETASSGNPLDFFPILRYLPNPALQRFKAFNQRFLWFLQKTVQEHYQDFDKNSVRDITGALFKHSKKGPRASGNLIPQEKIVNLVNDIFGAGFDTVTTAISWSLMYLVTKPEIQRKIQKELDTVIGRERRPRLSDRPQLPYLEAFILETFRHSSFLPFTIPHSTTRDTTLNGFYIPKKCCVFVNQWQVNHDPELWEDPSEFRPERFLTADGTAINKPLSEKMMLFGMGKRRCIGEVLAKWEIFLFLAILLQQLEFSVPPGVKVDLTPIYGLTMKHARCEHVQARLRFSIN

[8] = target: Cytochrome P450 2C9 (Homo sapiens, UniProt P11712)
Cytochrome P450 2C9, sequence (P11712 whole entry): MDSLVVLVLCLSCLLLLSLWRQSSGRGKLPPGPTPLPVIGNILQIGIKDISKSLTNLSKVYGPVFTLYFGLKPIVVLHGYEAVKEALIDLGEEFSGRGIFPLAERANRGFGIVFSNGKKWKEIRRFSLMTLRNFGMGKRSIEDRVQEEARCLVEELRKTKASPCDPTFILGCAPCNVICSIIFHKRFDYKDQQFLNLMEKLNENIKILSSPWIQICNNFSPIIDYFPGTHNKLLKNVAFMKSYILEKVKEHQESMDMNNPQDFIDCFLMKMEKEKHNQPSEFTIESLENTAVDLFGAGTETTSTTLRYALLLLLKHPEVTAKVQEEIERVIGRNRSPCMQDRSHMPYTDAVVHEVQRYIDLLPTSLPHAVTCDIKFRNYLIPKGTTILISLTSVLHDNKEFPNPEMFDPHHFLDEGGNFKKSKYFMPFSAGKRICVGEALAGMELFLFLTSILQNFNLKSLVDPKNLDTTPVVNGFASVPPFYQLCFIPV

[9] = target: Cytochrome P450 3A4 (Homo sapiens, UniProt P08684);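 also: CYP3A4 tested as one member of a cytochrome P450 panel screen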
Cytochrome P450 3A4, sequence (P08684 whole entry): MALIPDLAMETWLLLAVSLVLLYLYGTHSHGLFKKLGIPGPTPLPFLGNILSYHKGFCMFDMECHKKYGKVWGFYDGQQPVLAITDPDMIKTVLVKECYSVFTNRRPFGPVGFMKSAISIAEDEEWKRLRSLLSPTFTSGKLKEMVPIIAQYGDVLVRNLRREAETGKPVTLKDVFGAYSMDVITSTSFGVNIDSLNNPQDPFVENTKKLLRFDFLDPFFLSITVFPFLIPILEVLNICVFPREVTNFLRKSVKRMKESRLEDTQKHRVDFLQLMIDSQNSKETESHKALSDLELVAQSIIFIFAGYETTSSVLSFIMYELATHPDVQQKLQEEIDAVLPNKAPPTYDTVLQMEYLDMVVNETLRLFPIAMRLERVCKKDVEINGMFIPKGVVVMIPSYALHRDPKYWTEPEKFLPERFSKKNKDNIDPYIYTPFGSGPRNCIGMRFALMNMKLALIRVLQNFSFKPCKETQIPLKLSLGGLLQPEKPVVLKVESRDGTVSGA

[10] = microbe, parasite or virus in culture; format: functional; details: Mycobacterium tuberculosis
[11] = target: T2, Heat shock factor protein 1 (Mus musculus, UniProt P38532); assay: HSF1 potentiators in luciferase reporter cells, confirmation, cell-based, NIH3T3, luminescence, dose retest (AID 435004); format: functional;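 also: stress induced by proteasome inhibitor MG132 added 30 min after compound; luciferase reporter driven by HSF1 response element in NIH3T3 cells; actives raise luminescence as potentiators of the MG132 stress response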
T2 sequence (P38532 whole entry): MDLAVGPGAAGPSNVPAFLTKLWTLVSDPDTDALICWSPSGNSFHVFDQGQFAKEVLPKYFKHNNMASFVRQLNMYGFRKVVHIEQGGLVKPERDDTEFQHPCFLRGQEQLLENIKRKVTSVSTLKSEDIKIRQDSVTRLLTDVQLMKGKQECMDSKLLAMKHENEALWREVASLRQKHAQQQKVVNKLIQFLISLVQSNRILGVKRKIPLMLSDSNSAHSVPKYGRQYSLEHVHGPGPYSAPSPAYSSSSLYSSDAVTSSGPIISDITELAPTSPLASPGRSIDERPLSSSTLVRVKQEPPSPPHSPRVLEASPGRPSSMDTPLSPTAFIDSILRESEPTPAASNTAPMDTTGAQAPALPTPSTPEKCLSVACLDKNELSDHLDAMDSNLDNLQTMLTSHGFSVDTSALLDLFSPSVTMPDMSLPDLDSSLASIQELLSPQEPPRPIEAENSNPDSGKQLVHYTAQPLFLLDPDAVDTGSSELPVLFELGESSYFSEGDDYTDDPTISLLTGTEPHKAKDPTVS

[12] = target: DNA damage-inducible transcript 3 protein (Mus musculus, UniProt P35639); format: functional, Cricetulus griseus
DNA damage-inducible transcript 3 protein, sequence (P35639 whole entry): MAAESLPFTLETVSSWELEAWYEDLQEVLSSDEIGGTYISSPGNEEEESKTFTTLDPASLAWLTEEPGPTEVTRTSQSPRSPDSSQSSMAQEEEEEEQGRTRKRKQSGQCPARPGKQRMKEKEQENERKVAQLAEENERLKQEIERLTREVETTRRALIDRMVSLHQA

[13] = target: T3, Replicative DNA helicase DnaB (Mycobacterium tuberculosis, UniProt P9WMR3); assay: DnaB intein splicing inhibitors, dose response, biochemical, cell-free fluorescence (AID 449749); format: functional
T3 sequence (P9WMR3 whole entry): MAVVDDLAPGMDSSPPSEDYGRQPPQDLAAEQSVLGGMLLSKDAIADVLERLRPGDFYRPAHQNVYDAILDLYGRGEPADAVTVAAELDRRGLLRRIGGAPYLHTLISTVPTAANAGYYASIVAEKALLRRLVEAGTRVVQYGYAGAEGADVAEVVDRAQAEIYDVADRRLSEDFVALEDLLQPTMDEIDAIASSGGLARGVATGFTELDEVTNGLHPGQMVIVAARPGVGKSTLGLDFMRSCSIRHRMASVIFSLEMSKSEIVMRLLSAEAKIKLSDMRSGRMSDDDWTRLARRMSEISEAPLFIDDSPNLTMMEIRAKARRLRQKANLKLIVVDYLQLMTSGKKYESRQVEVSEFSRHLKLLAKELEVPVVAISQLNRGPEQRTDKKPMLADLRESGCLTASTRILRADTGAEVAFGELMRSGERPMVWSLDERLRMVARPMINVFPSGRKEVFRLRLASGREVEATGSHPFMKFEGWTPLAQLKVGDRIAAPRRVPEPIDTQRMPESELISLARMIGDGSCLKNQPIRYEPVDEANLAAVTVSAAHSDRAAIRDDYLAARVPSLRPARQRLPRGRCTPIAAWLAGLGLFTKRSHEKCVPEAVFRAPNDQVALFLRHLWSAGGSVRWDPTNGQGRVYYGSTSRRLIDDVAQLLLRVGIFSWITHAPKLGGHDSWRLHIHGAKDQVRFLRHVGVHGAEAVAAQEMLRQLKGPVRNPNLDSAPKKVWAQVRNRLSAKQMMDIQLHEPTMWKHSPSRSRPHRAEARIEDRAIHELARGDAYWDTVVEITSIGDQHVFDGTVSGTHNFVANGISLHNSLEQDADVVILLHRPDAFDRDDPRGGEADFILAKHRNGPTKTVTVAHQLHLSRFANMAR

[14] = target: T4, Protein RecA (Mycobacterium tuberculosis, UniProt P9WHJ3); assay: Fluorescence Cell-Free Homogeneous Dose Retest to Identify Inhibitors of RecA-Intein Splicing Activity. [Related pubchem assays (depositor defined):AID2097, AID2223, AID489010, AID492950]; format: functional
T4 sequence (P9WHJ3 whole entry): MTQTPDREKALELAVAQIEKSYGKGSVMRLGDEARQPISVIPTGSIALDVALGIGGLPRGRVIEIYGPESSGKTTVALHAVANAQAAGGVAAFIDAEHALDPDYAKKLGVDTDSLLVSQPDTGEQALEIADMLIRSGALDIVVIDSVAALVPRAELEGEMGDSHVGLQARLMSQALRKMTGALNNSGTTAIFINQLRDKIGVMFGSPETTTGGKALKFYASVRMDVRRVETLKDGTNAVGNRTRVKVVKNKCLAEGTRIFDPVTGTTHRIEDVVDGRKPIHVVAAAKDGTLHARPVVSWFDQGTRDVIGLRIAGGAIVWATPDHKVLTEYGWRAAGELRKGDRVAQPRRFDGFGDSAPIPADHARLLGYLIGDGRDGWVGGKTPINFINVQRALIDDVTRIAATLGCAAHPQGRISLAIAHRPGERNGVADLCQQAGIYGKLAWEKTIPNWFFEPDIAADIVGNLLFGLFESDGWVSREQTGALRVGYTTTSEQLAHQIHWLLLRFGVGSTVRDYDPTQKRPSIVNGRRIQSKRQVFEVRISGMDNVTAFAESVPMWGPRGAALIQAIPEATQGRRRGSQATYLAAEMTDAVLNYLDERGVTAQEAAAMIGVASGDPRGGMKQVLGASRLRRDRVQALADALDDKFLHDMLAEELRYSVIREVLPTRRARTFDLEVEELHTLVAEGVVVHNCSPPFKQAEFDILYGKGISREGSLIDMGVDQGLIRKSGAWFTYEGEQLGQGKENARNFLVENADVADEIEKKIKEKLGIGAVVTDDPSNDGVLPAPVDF

[15] = target: T5, Short transient receptor potential channel 4 (Mus musculus, UniProt Q9QUQ5); assay: mouse TRPC4 channel inhibitors, dose response, cell-based, HEK293 TRPC4/mu-opioid, Fluo-4 calcium (AID 434942); format: functional;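 also: potency of inhibitors blocking the TRPC4 calcium response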
T5 sequence (Q9QUQ5 whole entry): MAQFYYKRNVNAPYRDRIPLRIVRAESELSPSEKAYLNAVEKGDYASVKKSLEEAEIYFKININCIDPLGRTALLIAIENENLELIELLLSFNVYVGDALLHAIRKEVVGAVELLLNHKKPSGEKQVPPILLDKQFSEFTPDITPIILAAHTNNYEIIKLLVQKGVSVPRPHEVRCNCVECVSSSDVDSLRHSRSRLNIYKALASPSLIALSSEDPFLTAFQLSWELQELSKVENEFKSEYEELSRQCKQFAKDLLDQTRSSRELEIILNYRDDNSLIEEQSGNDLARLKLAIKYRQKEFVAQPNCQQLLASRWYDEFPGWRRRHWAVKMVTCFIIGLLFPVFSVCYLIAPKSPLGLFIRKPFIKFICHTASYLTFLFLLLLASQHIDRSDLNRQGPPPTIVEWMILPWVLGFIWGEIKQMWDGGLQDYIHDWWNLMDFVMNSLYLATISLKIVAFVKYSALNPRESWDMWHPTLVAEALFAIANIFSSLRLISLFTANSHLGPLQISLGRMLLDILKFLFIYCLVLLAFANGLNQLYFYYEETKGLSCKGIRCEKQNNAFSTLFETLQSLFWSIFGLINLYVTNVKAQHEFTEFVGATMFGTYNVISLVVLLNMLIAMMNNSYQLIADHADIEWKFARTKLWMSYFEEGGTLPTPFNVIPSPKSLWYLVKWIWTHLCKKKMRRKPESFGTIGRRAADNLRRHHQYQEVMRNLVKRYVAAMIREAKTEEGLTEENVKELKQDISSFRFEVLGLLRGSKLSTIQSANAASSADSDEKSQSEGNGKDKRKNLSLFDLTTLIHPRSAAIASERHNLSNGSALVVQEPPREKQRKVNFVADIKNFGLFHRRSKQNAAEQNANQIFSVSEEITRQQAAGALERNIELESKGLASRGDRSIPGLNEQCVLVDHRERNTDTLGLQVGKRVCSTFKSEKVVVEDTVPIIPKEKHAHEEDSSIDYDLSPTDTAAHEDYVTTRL

[16] = target: T6, High affinity choline transporter 1 (Homo sapiens, UniProt Q9GZV3); assay: CHT inhibitors, dose response, cell-based, 5-point CRC, membrane potential dye (AID 504840); format: functional
T6 sequence (Q9GZV3 whole entry): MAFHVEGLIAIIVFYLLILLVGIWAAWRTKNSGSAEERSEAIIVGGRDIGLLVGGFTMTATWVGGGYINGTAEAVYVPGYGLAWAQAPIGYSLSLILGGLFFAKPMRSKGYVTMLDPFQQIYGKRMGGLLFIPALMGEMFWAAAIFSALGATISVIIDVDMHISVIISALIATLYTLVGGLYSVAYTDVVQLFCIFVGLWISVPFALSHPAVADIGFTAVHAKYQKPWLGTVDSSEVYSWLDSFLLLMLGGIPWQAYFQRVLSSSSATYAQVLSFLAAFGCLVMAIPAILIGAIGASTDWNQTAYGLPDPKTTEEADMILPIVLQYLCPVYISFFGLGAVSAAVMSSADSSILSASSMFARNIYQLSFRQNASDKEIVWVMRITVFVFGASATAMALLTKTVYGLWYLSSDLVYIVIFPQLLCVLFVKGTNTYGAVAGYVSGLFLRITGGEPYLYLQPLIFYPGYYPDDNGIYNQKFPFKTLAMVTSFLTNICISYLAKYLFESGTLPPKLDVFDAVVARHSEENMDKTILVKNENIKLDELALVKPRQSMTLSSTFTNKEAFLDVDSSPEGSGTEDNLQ

Q: With `O=[N+]([O-])c1ccccc1N/N=C/c1cccc(O)c1O` as the molecule, how does the IC50 [1] read?
A: 2.74 µM (active)

Q: And the IC50 [2]?
A: 3.75 µM (active)

Q: For `CC(C)(C)c1ccc(OCc2ccc(C(=O)N/N=C/c3ccc(O)c(O)c3)cc2)cc1`, which EC50 [3] is on record?
A: 2.67 µM (inconclusive)

Q: And the IC50 [1]?
A: 3.14 µM (active)

Q: And the IC50 [2]?
A: 1.97 µM (active)

Q: And the EC50 [4]?
A: > 38 µM (not active)

Q: And the AC50 [5]?
A: 5.45 µM (active)

Q: With `Fc1ccc(C(c2ccc(F)cc2)N2CCN(C/C=C\c3ccccc3)CC2)cc1` as the molecule, how does the AC50 [6] read?
A: inactive

Q: What about the AC50 [7] of the same molecule?
A: 15.8 µM (inconclusive) (2×) and 25.1 µM (inconclusive)

Q: What about the AC50 [8] of the same molecule?
A: 39.8 µM (inconclusive) and 20 µM (inconclusive) and 15.8 µM (inconclusive)

Q: And the AC50 [9]?
A: inactive; also recorded: inconclusive

Q: For `COCCCN1CCN(c2nnc3n2-c2sc(Br)cc2C(c2ccccc2Cl)=NC3)CC1.CS(=O)(=O)O`, which AC50 ([6]; read-out: AC50) is on record?
A: 7.08 µM (inconclusive)

Q: What about the AC50 [9] of the same molecule?
A: inconclusive

Q: For `O=C(CCl)N1CCN2C(=O)c3ccccc3C12c1ccc(Cl)cc1` (configuration not stated), which CC50 [10] is on record?
A: 8.94 µM (active)

Q: And the EC50 [11]?
A: 15 µM (active)

Q: What about the “Absolute IC50 (CHOP)” value [12] of the same molecule?
A: 10 µM

Q: What about the AC50 [13] of the same molecule?
A: 3.96 µM (active)

Q: What about the EC50 [14] of the same molecule?
A: 1.08 µM (active)

Q: What does the source list for `Cn1c(-c2ccccc2)cnc1NCc1ccccc1`?
A: EC50 [15]: 5.31 µM (active); IC50 [16]: 11.5 µM (active)

Q: For `CC(C)c1nnc(NC(=O)CCC(=O)N2CCN(c3ccccn3)CC2)s1`, which AC50 ([6]; read-out: AC50) is on record?
A: 28.2 µM (inconclusive)

Q: And the AC50 [8]?
A: 7.08 µM (inconclusive)

Q: What about the AC50 [9] of the same molecule?
A: inconclusive

Q: Which results are given for `c1ccc(CN2CCC3(CCc4ccccc43)CC2)cc1`?
A: AC50 [7]: 31.6 µM (inconclusive); AC50 [8]: 39.8 µM (inconclusive); AC50 [9]: inconclusive

Q: With `Cc1ccccc1C(=O)N1CCN(c2ccc([N+](=O)[O-])c(NCc3ccco3)c2)CC1` as the molecule, how does the AC50 [9] read?
A: inconclusive
